Test results as given in US20230167150A1, “CD33 LIGANDS SUITABLE FOR INCORPORATION INTO CARRIERS” (GLYCOMIMETICS, INC., priority 2020, published 2023).

Biological target: T1, CD33 (Homo sapiens, UniProt P20138)
T1 construct: purchased BioLegend 750106
Experiment: CD33 activity competitive binding assay (ELISA)
Details: immobilized CD33-Fc; competition with Neu5Acα2-3Galβ1-3GalNAc-PAA-biotin; streptavidin/horseradish peroxidase, TMB, absorbance 450 nm
Procedure: The assay to screen for and characterize glycomimetic ligands of CD33 is a competitive binding assay, which allows the determination of IC50 values. CD33-Fc (BioLegend catalog item 750106) was immobilized in 96 well microtiter plates by incubation at 4° C. overnight. To reduce non-specific binding, bovine serum albumin was added to each well and incubated at room temperature for 3 hours. The plate was washed and serial dilutions of the test compounds were added to the wells in the presence of biotinylated polyacrylamide conjugated with Neu5Acα2-3Galβ1-3GalNAc-PAA-biotin (GlycoTech catalog item 01-088). After incubation at room temperature for 2 hours and washing, streptavidin/horseradish peroxidase was added to each well and incubated at room temperature for 30 minutes followed by an additional wash.
To determine the amount of glycopolymer bound to the immobilized CD33, the peroxidase substrate […] tetramethylbenzidine (TMB) was added. After 5 minutes, the enzyme reaction was stopped by the addition of H3PO4, and the absorbance of light at a wavelength of 450 nm was determined. The concentration of test compound required to inhibit binding by 50% was determined and reported as the IC50 value.

T1 sequence (P20138 18-364): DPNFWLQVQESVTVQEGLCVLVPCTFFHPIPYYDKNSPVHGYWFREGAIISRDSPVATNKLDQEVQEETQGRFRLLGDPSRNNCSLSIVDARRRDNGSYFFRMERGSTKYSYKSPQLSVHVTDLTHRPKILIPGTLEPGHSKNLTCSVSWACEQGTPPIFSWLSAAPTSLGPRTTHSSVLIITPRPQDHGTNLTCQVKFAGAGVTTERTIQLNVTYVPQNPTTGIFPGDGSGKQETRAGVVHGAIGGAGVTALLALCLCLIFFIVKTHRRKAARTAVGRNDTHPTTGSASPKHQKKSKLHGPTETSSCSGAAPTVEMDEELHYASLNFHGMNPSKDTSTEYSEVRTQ

| IC50 [µM] | SMILES |
| --- | --- |
| 54 | Cc1cc(C(=O)NC[C@@H](O)[C@@H](O)C2O[C@@](OCCCN(Cc3ccccc3)C(=O)CCOCCOCCOCCOCCOCCOCCN=[N+]=[N-])(C(=O)O)CC(O)[C@H]2NC(=O)Cn2cc(C3CCCCC3)nn2)cc(C)c1O (some centres unmarked) [Compound 13] |
| 27 | Cc1cc(C(=O)NC[C@@H](O)[C@@H](O)C2O[C@@](OCCCN(CCc3ccccc3)C(=O)CCOCCOCCOCCOCCOCCOCCN=[N+]=[N-])(C(=O)O)CC(O)[C@H]2NC(=O)Cn2cc(C3CCCCC3)nn2)cc(C)c1O (some centres unmarked) [Compound 15] |
